Assay results published in the Kinase Knowledgebase extract (Sharma et al. 2016).

Biological target: CDK2 (human) (UniProt P24941)
Assay: Enzyme Assay

Structure (SMILES)	IC50 [µM]
CCOc1ccc(Nc2c(C)c(NC3CCCNC3)nc3c(C#N)cnn23)cc1 (stereo unspecified)	< 100
Cc1ccccc1COc1cccc(Nc2c(C)c(N[C@H]3CC[C@H](N)CC3)nc3ccnn23)c1	< 100
COc1cccc(-c2ccc(Nc3c(C)c(N[C@H]4CC[C@H](N)CC4)nc4ccnn34)cc2)c1	< 100
Cc1c(N[C@H]2CC[C@H](N)CC2)nc2ccnn2c1Nc1cccc(OCC2CCCC2)c1	< 100
Cc1c(N[C@H]2CC[C@H](N)CC2)nc2ccnn2c1Nc1cccc(OCC(O)CO)c1 (stereo partly specified)	< 100
Cc1c(N[C@H]2CC[C@H](N)CC2)nc2ccnn2c1Nc1ccccc1	< 100
Cc1c(N[C@H]2CC[C@H](N)CC2)nc2ccnn2c1Nc1ccc(OCc2ccc(Cl)cc2)cc1	< 100
CCOc1ccc(Nc2c(C)c(N[C@H]3CC[C@H](N)CC3)nc3c(C(C)C)cnn23)cc1	< 100
Cc1c(N[C@H]2CC[C@H](N)CC2)nc2ccnn2c1Nc1ccc(OCC2CCCCN2)cc1 (stereo partly specified)	< 100
CCOc1ccc(Nc2c(C)c(N[C@H]3CC[C@H](N)CC3)nc3c(C(=O)O)cnn23)cc1	< 100
CCOc1ccc(Nc2c(C)c(N[C@@H]3CN[C@@H](C(=O)O)C3)nc3ccnn23)cc1	< 100
Cc1c(N[C@H]2CC[C@H](N)CC2)nc2ccnn2c1Nc1ccc2cn[nH]c2c1	< 100
CCOc1ccc(Nc2c(C)c(N(CC)C3CCCNC3)nc3ccnn23)cc1 (stereo unspecified)	< 100
CCc1c(N[C@H]2CC[C@H](N)CC2)nc2ccnn2c1Nc1ccc(Oc2ccc(C)cc2)cc1	< 100
Cc1c(N[C@H]2CC[C@H](N)CC2)nc2ccnn2c1Nc1ccc(OCc2ccc(N)cc2)cc1	< 100
CCOc1ccc(Nc2c(C)c(N[C@H]3CC[C@H](N)CC3)nc3c(C(=O)Nc4ccccc4)cnn23)cc1	< 100
CCCCOc1ccc(Nc2c(CC)c(N[C@H]3CC[C@H](N)CC3)nc3ccnn23)cc1	< 100
Cc1c(N[C@H]2CC[C@H](N)CC2)nc2ccnn2c1Nc1ccc(OCc2cccnc2)cc1	< 100
Cc1c(N[C@H]2CC[C@H](N)CC2)nc2ccnn2c1Nc1ccc2[nH]ncc2c1	< 100
Cc1c(N[C@H]2CC[C@H](N)CC2)nc2ccnn2c1Nc1ccc(-c2csc3ccccc23)cc1	< 100
Cc1c(N[C@H]2CC[C@H](N)CC2)nc2ccnn2c1Nc1ccc(OC(C)C)cc1	< 100
Cc1c(N[C@H]2CC[C@H](N)CC2)nc2ccnn2c1Nc1ccc(OCC2CCCCC2)cc1	< 100
Cc1c(NC2CCCNC2)nc2ccnn2c1Nc1ccc(-c2ccc(N)cc2)cc1 (stereo unspecified)	< 100
Cc1c(N[C@H]2CC[C@H](N)CC2)nc2c(C(=O)C(F)(F)F)cnn2c1Nc1ccc(I)cc1	< 100

Structure (SMILES)	IC50 [µM]
CCc1c(NC2CCCNC2)nc2ccnn2c1Nc1ccc(F)c(Cl)c1 (stereo unspecified)	< 100
CCc1c(N[C@H]2CC[C@H](N)CC2)nc2ccnn2c1Nc1ccc(N2CCCCC2)cc1	< 100
COc1cccc(COc2cccc(Nc3c(C)c(N[C@H]4CC[C@H](N)CC4)nc4ccnn34)c2)c1	< 100
CCCNc1c(C)c(N[C@H]2CC[C@H](N)CC2)nc2ccnn12	< 100
Cc1c(N[C@H]2CC[C@H](N)CC2)nc2ccnn2c1Nc1ccc(-c2cccnc2)cc1	< 100
CSc1cccc(Nc2c(C)c(N[C@H]3CC[C@H](N)CC3)nc3ccnn23)c1	< 100
CCCCOc1ccc(Nc2c(CCCO)c(N[C@H]3CC[C@H](N)CC3)nc3ccnn23)cc1	< 100
CCOc1ccc(Nc2c(C)c(N[C@H]3CC[C@H](N)CC3)nc3c(S(C)(=O)=O)cnn23)cc1	< 100
CCc1c(N[C@H]2CC[C@H](N)CC2)nc2ccnn2c1Nc1cccc(I)c1	< 100
CCc1c(NC2CCNCC2)nc2ccnn2c1Nc1ccc(F)c(Cl)c1	< 100
CC(=O)c1ccc(-c2ccc(Nc3c(C)c(N[C@H]4CCCNC4)nc4ccnn34)cc2)s1	< 100
Cc1ccc(-c2ccc(Nc3c(C)c(N[C@H]4CC[C@H](N)CC4)nc4ccnn34)cc2)cc1	< 100
Cc1c(N[C@H]2CC[C@H](N)CC2)nc2ccnn2c1Nc1cccc(OCc2cccc(N)c2)c1	< 100
Cc1c(N[C@H]2CC[C@H](N)CC2)nc2ccnn2c1Nc1ccc(I)cc1	< 100
COc1ccc(Nc2c(C)c(N[C@H]3CC[C@H](N)CC3)nc3ccnn23)cc1	< 100
Cc1c(N[C@H]2CC[C@H](N)CC2)nc2ccnn2c1Nc1ccc(-c2cc3ccccc3[nH]2)cc1	< 100
Cc1c(N[C@H]2CC[C@H](N)CC2)nc2ccnn2c1Nc1ccc(-c2cc3ccccc3s2)cc1	< 100
Cc1c(N[C@H]2CC[C@H](N)CC2)nc2ccnn2c1Nc1ccc(OC2CCOCC2)cc1	< 100
Cc1c(N[C@H]2CC[C@H](N)CC2)nc2ccnn2c1Nc1ccc(OCC2CCCO2)cc1 (stereo partly specified)	< 100
Cc1c(N[C@H]2CC[C@H](N)CC2)nc2ccnn2c1Nc1ccc(-c2cn[nH]c2)cc1	< 100
Cc1c(N[C@H]2CC[C@H](N)CC2)nc2ccnn2c1Nc1ccc(OCc2ccccc2)cc1	< 100
CCc1c(N[C@H]2CC[C@H](N)CC2)nc2ccnn2c1Nc1cccc(C)c1	< 100
CCOc1ccc(Nc2cc(N[C@H]3CC[C@H](N)CC3)nc3c(I)cnn23)cc1	< 100
CCOc1ccc(Nc2c(C)c(N[C@@H]3CCN(Cc4ccccc4)C3)nc3ccnn23)cc1	< 100

Structure (SMILES)	IC50 [µM]
CCOc1ccc(Nc2c(CC)c(N[C@H]3CC[C@H](N)CC3)nc3ccnn23)cc1	< 100
Cc1nn2c(Nc3ccc(F)c(Cl)c3)cc(N[C@H]3CC[C@H](N)CC3)nc2c1Br	< 100
CCc1c(N[C@H]2CC[C@H](N)CC2)nc2ccnn2c1Nc1ccc(OC(F)(F)F)cc1	< 100
CCc1c(N[C@H]2CC[C@H](N)CC2)nc2ccnn2c1Nc1ccccc1Cl	< 100
CCc1c(N[C@H]2CC[C@H](N)CC2)nc2ccnn2c1Nc1ccc(OCc2ccccc2)cc1	< 100
CSc1cnn2c(Nc3ccc(F)c(Cl)c3)cc(N[C@H]3CC[C@H](N)CC3)nc12	< 100
Cc1ccc(Nc2c(C)c(N[C@H]3CC[C@H](N)CC3)nc3ccnn23)cc1C	< 100
Cc1c(N[C@H]2CC[C@H](N)CC2)nc2ccnn2c1Nc1ccc(OC2CCN(C)CC2)cc1	< 100
CCOc1ccc(Nc2c(C)c(N[C@H]3CCN(Cc4ccccc4)C3)nc3ccnn23)cc1	< 100
CCOc1ccc(Nc2c(C)c(NC(CO)C(C)C)nc3ccnn23)cc1 (stereo unspecified)	< 100
CCCOc1ccc(Nc2c(C)c(N[C@H]3CC[C@H](N)CC3)nc3ccnn23)cc1	< 100
CCc1c(N[C@H]2CC[C@H](N)CC2)nc2ccnn2c1Nc1ccc(OC)cc1	< 100
Cc1c(N[C@H]2CC[C@H](N)CC2)nc2ccnn2c1Nc1ccc(OC2CCCC2)cc1	< 100
Cc1c(N[C@H]2CC[C@H](N)CC2)nc2ccnn2c1NCC(C)(C)C	< 100
N#Cc1cnn2c(Nc3ccccc3Cl)cc(N[C@H]3CC[C@H](N)CC3)nc12	< 100
N[C@H]1CC[C@H](Nc2cc(NCc3ccc(F)c(Cl)c3)n3ncc(Br)c3n2)CC1	< 100
CCOc1ccc(Nc2c(C)c(NC3CCCNC3)nc3c(C(C)C)cnn23)cc1 (stereo unspecified)	< 100
Cc1c(N[C@H]2CC[C@H](N)CC2)nc2ccnn2c1Nc1ccc(-c2ccsc2C=O)cc1	< 100
C=CCNc1c(-c2ccccc2)c(N[C@H]2CC[C@H](N)CC2)nc2ccnn12	< 100
Cc1c(N[C@H]2CC[C@H](N)CC2)nc2ccnn2c1Nc1ccccc1F	< 100
CCOc1ccc(Nc2c(C)c(N[C@H]3CC[C@H](N)CC3)nc3c(C#N)cnn23)cc1	< 100
CCc1c(N[C@H]2CC[C@H](N)CC2)nc2ccnn2c1Nc1ccc(C(N)=O)cc1	< 100
COCc1cccc(-c2ccc(Nc3c(C)c(N[C@H]4CC[C@H](N)CC4)nc4ccnn34)cc2)c1	< 100
Cc1ccccc1-c1ccc(Nc2c(C)c(N[C@H]3CC[C@H](N)CC3)nc3ccnn23)cc1	< 100

Structure (SMILES)	IC50 [µM]
CCc1c(N[C@H]2CC[C@H](N)CC2)nc2ccnn2c1Nc1ccc(OC)c(OC)c1	< 100
Cc1c(N[C@H]2CC[C@H](N)CC2)nc2c(C#N)cnn2c1Nc1ccc(F)c(Cl)c1	< 100
CC1=[SH]c2cc(Nc3c(C)c(N[C@H]4CC[C@H](N)CC4)nc4ccnn34)ccc2N1	< 100
CCCc1c(N[C@H]2CC[C@H](N)CC2)nc2ccnn2c1Nc1ccc(F)c(Cl)c1	< 100
CCc1c(N[C@H]2CC[C@H](N)CC2)nc2ccnn2c1Nc1cccc(OCc2ccccc2)c1	< 100
Cc1c(N[C@H]2CC[C@H](N)CC2)nc2ccnn2c1Nc1ccc(-c2cncnc2)cc1	< 100
Cc1c(N[C@H]2CC[C@H](N)CC2)nc2ccnn2c1Nc1ccc(OCCc2ccncc2)cc1	< 100
CCOc1ccccc1Nc1c(C)c(N[C@H]2CC[C@H](N)CC2)nc2ccnn12	< 100
Cc1c(N[C@H]2CC[C@H](N)CC2)nc2ccnn2c1Nc1ccc(-c2ccc(N)cc2)cc1	< 100
CCOc1cccc(Nc2c(C)c(N[C@H]3CC[C@H](N)CC3)nc3ccnn23)c1	< 100
Cc1c(N[C@H]2CC[C@H](N)CC2)nc2ccnn2c1Nc1ccc(N2CCCCC2)cc1	< 100
Cc1c(N[C@H]2CC[C@H](N)CC2)nc2ccnn2c1Nc1ccc2cc[nH]c2c1	< 100
CCOc1ccc(Nc2c(C)c(NC3CCCNC3)nc3c(C4CC4)cnn23)cc1 (stereo unspecified)	< 100
Cc1c(N[C@H]2CC[C@H](N)CC2)nc2ccnn2c1Nc1ccc(-c2cccc(CO)c2)cc1	< 100
N[C@H]1CC[C@H](Nc2cc(Nc3ccccc3Cl)n3ncc(I)c3n2)CC1	< 100
CCOc1ccc(Nc2c(C)c(N[C@H]3CC[C@H](N)CC3)nc3c(C(=O)Nc4ccncc4)cnn23)cc1	< 100
Cc1c(N[C@H]2CC[C@H](N)CC2)nc2ccnn2c1Nc1ccc(-c2ccccc2C(F)(F)F)cc1	< 100
Cc1c(N[C@H]2CC[C@H](N)CC2)nc2ccnn2c1Nc1ccc(-c2ccccc2Cl)cc1	< 100
CCc1c(NC2CCCNC2)nc2ccnn2c1Nc1ccc(Br)cc1 (stereo unspecified)	< 100
Cc1c(N[C@H]2CC[C@H](N)CC2)nc2ccnn2c1Nc1ccc2c(c1)OCCO2	< 100
Cc1c(N[C@H]2CC[C@H](N)CC2)nc2ccnn2c1Nc1ccc(-c2ccc(C(F)(F)F)cc2)cc1	< 100
CCOc1ccc(-c2ccc(Nc3c(C)c(N[C@H]4CC[C@H](N)CC4)nc4ccnn34)cc2)cc1	< 100
CCOc1ccc(Nc2c(C)c(N[C@H]3CC[C@H](N)CC3)nc3c(C(=O)Nc4cccnc4)cnn23)cc1	< 100
N[C@H]1CC[C@H](Nc2cc(NCc3cccc(Cl)c3)n3ncc(I)c3n2)CC1	< 100
